Molecular target: T1, HDAC1 (Homo sapiens, UniProt Q13547)
T1 construct: HDAC1-NanoLuc fusion protein
Experiment: NanoBRET target engagement in live TT cells, competitive displacement of HDAC Tracer-01
Format: cell-based
Source text: NanoBRET target engagement in live TT cells, competitive displacement of HDAC Tracer-01 on HDAC1 | TDP-A dose-dependently attenuated BRET from intracellular HDAC1-NanoLuc fusion protein (Figure 1B) in low nanomolar concentrations

T1 sequence (Q13547 whole entry, the tested form may be a part): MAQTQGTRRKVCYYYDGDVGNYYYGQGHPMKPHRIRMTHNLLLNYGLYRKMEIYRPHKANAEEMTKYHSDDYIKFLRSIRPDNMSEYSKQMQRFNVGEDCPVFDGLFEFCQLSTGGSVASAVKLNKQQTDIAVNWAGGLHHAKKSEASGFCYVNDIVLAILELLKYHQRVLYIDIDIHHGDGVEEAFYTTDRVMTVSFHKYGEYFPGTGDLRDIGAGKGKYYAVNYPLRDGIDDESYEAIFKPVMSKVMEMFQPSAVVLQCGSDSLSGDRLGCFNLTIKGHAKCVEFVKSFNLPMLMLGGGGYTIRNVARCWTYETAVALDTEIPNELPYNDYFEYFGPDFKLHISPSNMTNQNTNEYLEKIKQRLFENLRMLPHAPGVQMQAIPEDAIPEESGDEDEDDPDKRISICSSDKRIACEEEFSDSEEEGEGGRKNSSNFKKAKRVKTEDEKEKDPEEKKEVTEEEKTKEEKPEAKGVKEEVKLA

Work on `CC[C@H](C)[C@H]1NC(=O)[C@H]2CSSCC/C=C/[C@H](CC(=O)N[C@H](CCSC)C(=O)N2)OC(=O)C[C@@H]1O` [TDP-A, thailandepsin A] yielded an EC50 of 6.8 nM.
